Results on four molecules are retold here after patent US5705518A, “Method of activating photosensitive agents” (University of British Columbia, priority 1995, dated 1998).

Series [1] concerns subcutaneous rat gliosarcomas. As to conditions: in vivo; cited from earlier work.
For series [2] the following is noted: mouse, in vivo, iv; cited from earlier work.
Series [3] concerns M-1 tumor. As to the kind of experiment: Comparison PDT with light three hours post injection (FIG. 3), M-1 tumor mouse. To be noted: 2.0 mg/kg BPD-MA, 100 J/cm^2, 4 days (FIG. 3).
For series [4] the following is noted: mouse, in vivo, iv, cited from earlier work.
A further series deals with M-1 tumor cells. In words: Dose ranging study: drug dose, light dose and post injection interval, M-1 tumor-bearing mice. In kind it is in vivo, DBA/2 mice.
Series [5] has as its system M-1 (murine rhabdomyosarcoma) tumor. In words: Pilot study of shorter post injection intervals: PDT of M-1 tumor-bearing mice, light 15 min after liposomal BPD-MA. In kind it is in vivo, DBA/2 mice. As to conditions: light 15 min post injection.
Protocol: Liposomal BPD was dried and stored frozen at -20° C. in 1 ml aliquots. The appropriate number of aliquots were thawed immediately before use and diluted with 5% dextrose in water for injection into the animals.
Male DBA/2 mice (7-11 weeks old; Charles River Laboratories, St. Constant, Quebec, Canada) were used in these studies, unless otherwise specified. Shaving and depilation removed the hair very effectively from appropriate body surfaces. The mice were shaved and depilated with a commercially available depilator (Nair®) at least one day before being used in the experiments. Following injection the mice were kept in the dark for various lengths of time, as described below. Before and after the experiments the mice were kept in an animal facility with 12 hours of light and 12 hours of dark daily.
An argon pumped dye laser, whose power source was obtained from Spectra Physics (Series 2000, Mountain View, Calif.) and whose 5W argon ion pumped dye laser was obtained from Coherent (Model 599, Palo Alto, Calif.) was used to deliver a columnated beam of light having a wavelength of 690 (±3) nm. The argon laser was aimed at the skin to irradiate the tumor. The time of light exposure was varied to give different light doses, such as 50, 75 and 100 Joules/cm^2.
DBA/2 mice (weight 22±1 g) were used in this study. […]
In series [6] the test system is M-1 tumor. In words: Light dose-response study at 690 nm (FIG. 5). It is filed as in vivo, mice. As to conditions: 2 mg/kg BPD-MA, three hours post injection. On the procedure: FIG. 5 illustrates a light dose-response study at 690 nm and with a BPD-MA dose of 2 mg/kg. […] Light exposure took place three hours after the injection of 2 mg/kg BPD-MA.
FIG. 5 summarizes results of a test involving the same mouse-tumor model, in which five different light exposures (50, 75, 100, 125 and 150 J/cm^2) were used three hours post injection with 2 mg/kg BPD-MA. Under this regimen, which is similar to current clinical regimens, 75% of the mice receiving 150 J/cm^2 and 50% of the mice receiving 125 J/cm^2 were tumor free at 14 days.

Series [7] has as its system M-1 tumor. In words: Anti-tumor efficacy BPD-MA dose-response study (FIG. 4). In kind it is in vivo, mice. As to conditions: 2.0 mg/kg (only group of 0.5, 1.0, 1.5, 2.0 mg/kg); 150 J/cm^2; three hours post injection. On the procedure: FIG. 4 illustrates an anti-tumor efficacy dose-response study for BPD-MA, liposomal formulation. […] Light exposure took place three hours after injection.
For comparison, FIGS. 4 and 5 are provided. FIG. 4 summarizes results of a test involving the same mouse-tumor model, in which four different BPD-MA doses were given (0.5, 1.0, 1.5, and 2.0 mg/kg). Light exposure was 150 J/cm^2, administered after a post injection interval of three hours of darkness. Under this regimen, which is similar to current clinical regimens, the only group that was over 50% tumor free at 14 days was that group of mice receiving 2.0 mg/kg.

The conditions of series [8]: human, in vivo; cited from earlier work.
The test system of the next series is bladder cancer. As to conditions: human, in vivo, cited from earlier work.
Setting [9] is: 0.5 mg/kg, 50 J/cm^2, 30 min post injection, 2 mice, interim.
Where [10] appears, read: 0.5 mg/kg, 75 J/cm^2, 15 min post injection, 2 mice, interim.
The mark [11] stands for this setting: 0.5 mg/kg, 100 J/cm^2, 15 min post injection, 5 mice, interim.
The mark [12] stands for this setting: 1.0 mg/kg, 50 J/cm^2, 15 min post injection, 4 mice, interim.
The mark [13] stands for this setting: 1.0 mg/kg, 50 J/cm^2, 30 min post injection, 5 mice, interim.
[14] abbreviates: 1.0 mg/kg, 75 J/cm^2, 15 min post injection, 5 mice, interim.
Setting [15] is: 1.0 mg/kg, 100 J/cm^2, 15 min post injection, 4 mice, interim.

Where two headings read alike, the source gives them in different places. Bounds are passed on as bounds.

With hematoporphyrin derivative, in series [1], the “safety of direct injection compared with parenteral injection” value is “direct injection appeared to be safer than parenteral injection”.

For `C=Cc1c(C)c2cc3nc(cc4[nH]c(cc5nc(cc1[nH]2)C1(C)C5=CC=C(C(=O)OC)C1C(=O)OC)c(C)c4CCC(=O)O)C(CCC(=O)OC)=C3C` (stereo not drawn) [BPD-MB], the Tumor-skin ratios result in [2] is listed as “favorable”.

“benzoporphyrin derivative monoacid ring A [BPD-MA]”: the survival of mouse entry in the series with M-1 tumor [3] was “alive”; in [5] (0.5 mg/kg BPD-MA, 75 J/cm^2, 24 hours (FIG. 2)), “alive”; in series [5] (1 mg/kg BPD-MA, 100 J/cm^2, 48 hours (FIG. 1)) it was “alive”. The tumor eradication result in the series on M-1 tumor [3] is reported as “the tumor was eradicated”. Also, in the series on M-1 tumor [3], the tumor palpability result is “The tumor was not palpable”. For the same molecule, the “BPD-MA in the tumor that was active” value in series [4] (3 h) was 100%; in series [4] (24 h), 39%. In addition, the “degradation in livers and kidneys compared with tumors” value in series [4] is “Both livers and kidneys degraded BPD-MA more quickly than did the tumors”. Also, the “mice that developed tumors” value with M-1 tumor cells (0.5 mg/kg BPD-MA, 50 J/cm^2, 30 minutes post injection) is “all mice developed tumors”. The “tumor free at day 7” value in the series with M-1 tumor cells (0.5 mg/kg BPD-MA, 100 J/cm^2, 15 minutes post injection, day 7, five mice) is listed as “all were tumor free at day 7”. The “mice that developed tumors by day 14” value in the series with M-1 tumor cells (0.5 mg/kg BPD-MA, 100 J/cm^2, 15 minutes post injection, day 14) was “Three of five mice”. The “# Tumor-Free, Day 7” value was 3 mice with M-1 tumor cells (0.5 mg/kg, 50 J/cm^2, 1 min post injection, 3 mice, interim); 2 mice with M-1 tumor cells (0.5 mg/kg, 50 J/cm^2, 15 min post injection, 2 mice, interim); 0 mice with M-1 tumor cells (setting [9]); 2 mice in the series on M-1 tumor cells (setting [10]); 3 mice with M-1 tumor cells (0.5 mg/kg, 100 J/cm^2, 1 min post injection, 3 mice, interim); 5 mice with M-1 tumor cells (setting [11]). Besides, the “# Tumor-Free, Day 7” value in the series with M-1 tumor cells (0.5 mg/kg, 100 J/cm^2, 30 min post injection, 2 mice, interim) worked out at 2 mice; in the series on M-1 tumor cells (1.0 mg/kg, 50 J/cm^2, 1 min post injection, 4 mice, interim), 4 mice; in the series on M-1 tumor cells (setting [12]), 4 mice; in the series with M-1 tumor cells (setting [13]) it was 4 mice; in the series with M-1 tumor cells (setting [14]), 5 mice; in the series with M-1 tumor cells (1.0 mg/kg, 75 J/cm^2, 30 min post injection, 5 mice, interim), 4 mice. For the same molecule, the “# Tumor-Free, Day 7” value in the series on M-1 tumor cells (setting [15]) worked out at 4 mice. Besides, the “# Tumor-Free, Day 14” value with M-1 tumor cells (setting [9]) is recorded as 0 mice; with M-1 tumor cells (setting [10]), 2 mice; with M-1 tumor cells (setting [11]), 2 mice; with M-1 tumor cells (setting [12]) it was 4 mice; with M-1 tumor cells (setting [13]), 4 mice; with M-1 tumor cells (setting [14]) it was 4 mice. In addition, in the series on M-1 tumor cells (setting [15]), the “# Tumor-Free, Day 14” value amounted to 4 mice. Further, the “# Tumor-Free, Day 7 column (observations on Day 2 post exposure)” value in the series on M-1 tumor cells (0.5 mg/kg, 75 J/cm^2, 1 min post injection, 2 mice, observed Day 2, interim) is given as 2 mice. In addition, in the series with M-1 tumor cells (all regimens of Table 1, day 14, interim), the “tumor free, animals followed to day 14” value is “most are tumor free”. Further, the “tumor free at 14 days” value in the series on M-1 tumor [6] (125 J/cm^2) is 50%; in the series with M-1 tumor [6] (150 J/cm^2), 75%; in the series with M-1 tumor [7], “over 50%”.

Take porfimer sodium: in series [8], the “duration of photosensitivity (patient warning)” value is given as “six” and the “relationship of photosensitivity to injected drug dose” value was “no apparent relationship of photosensitivity to injected drug dose”. In addition, in the series on bladder cancer (iv, 2 mg/kg), the “time of occurrence of skin phototoxicity” value is given as at most 10 days. Further, in the series on bladder cancer, the “patients with irritative bladder symptoms” value is given as “Five”.
